Test results from patent publication US6339042B1, “Herbicidal N-cyclohexadienyl heteroaryloxyacetamides” (American Cyanamid Co., priority 1999, dated 2002).

Columns and labels:
Conditions in all cases: three weeks after treatment
[1] = test system: Amaranthus tuberculatus; test: Pre-emergence herbicidal evaluation, AMATA; type: in vivo
Excerpt: (§1) The treated pots are then placed on greenhouse benches, watered and cared for in accordance with conventional greenhouse procedures.

[2] = test system: Alopecurus myosuroides; test: Pre-emergence herbicidal evaluation, ALOMY; type: in vivo
Excerpt: as §1

[3] = test system: Apera spica venti; test: Pre-emergence herbicidal evaluation, APESV; type: in vivo
Excerpt: as §1

[4] = test system: Echinochloa crus-galli; test: Pre-emergence herbicidal evaluation, ECHCG; type: in vivo
Excerpt: as §1

[5] = test system: Setaria viridis; test: Pre-emergence herbicidal evaluation, SETVI; type: in vivo
Excerpt: as §1

[6] = test system: Lolium perenne; test: Pre-emergence herbicidal evaluation, LOLPE; type: in vivo
Excerpt: as §1

[7] = test system: Triticum aestivum; test: Pre-emergence herbicidal evaluation, TRZAW; type: in vivo
Excerpt: as §1

[8] = test system: Hordeum vulgare; test: Pre-emergence herbicidal evaluation, HORVW; type: in vivo
Excerpt: as §1

[9] = test system: Zea mays; test: Pre-emergence herbicidal evaluation, ZEAMX; type: in vivo
Excerpt: as §1

[10] = test system: Glycine max; test: Pre-emergence herbicidal evaluation, GLXMA; type: in vivo
Excerpt: as §1

[11] = test system: Oryza sativum; test: Pre-emergence herbicidal evaluation, ORYSA; type: in vivo
Excerpt: as §1

[12] = test system: Amaranthus tuberculatus; test: Post-emergence herbicidal evaluation, AMATA; type: in vivo
[13] = test system: Galium aparine; test: Post-emergence herbicidal evaluation, GALAP
[14] = test system: Alopecurus myosuroides; test: Post-emergence herbicidal evaluation, ALOMY
Description: (§2) The compounds of the invention are tested for pre- and post-emergence herbicidal activity.
(§3) Each pot is examined three weeks after treatment and phytotoxicity is assessed according to the rating system set forth below.
(§4) These acetone solutions are diluted with water and the resulting formulations applied at dosage levels equivalent of about 0.4 to 0.1 kg per hectare of test compound per pot. After spraying the plants are placed on greenhouse benches and are cared for in the usual manner, commensurate with conventional greenhouse practices.

[15] = test system: Apera spica venti; test: Post-emergence herbicidal evaluation, APESV
Description: as §2, §3, §4

[16] = test system: Echinochloa crus-galli; test: Post-emergence herbicidal evaluation, ECHCG
[17] = test system: Setaria viridis; test: Post-emergence herbicidal evaluation, SETVI
[18] = test system: Lolium perenne; test: Post-emergence herbicidal evaluation, LOLPE
Description: as §3, §4

[19] = test system: Triticum aestivum; test: Post-emergence herbicidal evaluation, TRZAW
Description: as §3, §4

[20] = test system: Hordeum vulgare; test: Post-emergence herbicidal evaluation, HORVW
[21] = test system: Zea mays; test: Post-emergence herbicidal evaluation, ZEAMX
[22] = test system: Glycine max; test: Post-emergence herbicidal evaluation, GLXMA
Description: as §3, §4

[23] = test system: Oryza sativum; test: Post-emergence herbicidal evaluation, ORYSA

CC1=CC(N(C)C(=O)COc2nc3ccccc3o2)=CC(C)(C)C1 [Example 16]
phytotoxicity rating AMATA ([1]; 0.100 kg/ha): 0 (0 - No effect)
phytotoxicity rating AMATA ([1]; 0.200 kg/ha): 3 (3 - Moderate effect)
phytotoxicity rating AMATA ([1]; 0.400 kg/ha): 3 (3 - Moderate effect)
phytotoxicity rating AMATA ([1]; 0.800 kg/ha): 7 (7 - Good herbicidal effect)
phytotoxicity rating ALOMY ([2]; 0.100 kg/ha): 6 (6 - Herbicidal effect)
phytotoxicity rating ALOMY ([2]; 0.200 kg/ha): 8 (8 - Approaching complete kill)
phytotoxicity rating ALOMY ([2]; 0.400 kg/ha): 8 (8 - Approaching complete kill)
phytotoxicity rating ALOMY ([2]; 0.800 kg/ha): 9 (9 - Complete kill)
phytotoxicity rating APESV ([3]; 0.200 kg/ha): 4 (4 - Injury)
phytotoxicity rating APESV ([3]; 0.400 kg/ha): 8 (8 - Approaching complete kill)
phytotoxicity rating APESV ([3]; 0.800 kg/ha): 9 (9 - Complete kill)
phytotoxicity rating ECHCG ([4]; 0.100 kg/ha): 5 (5 - Definite injury)
phytotoxicity rating ECHCG ([4]; 0.200 kg/ha): 6 (6 - Herbicidal effect)
phytotoxicity rating ECHCG ([4]; 0.400 kg/ha): 7 (7 - Good herbicidal effect)
phytotoxicity rating ECHCG ([4]; 0.800 kg/ha): 9 (9 - Complete kill)
phytotoxicity rating SETVI ([5]; 0.100 kg/ha): 5 (5 - Definite injury)
phytotoxicity rating SETVI ([5]; 0.200 kg/ha): 8 (8 - Approaching complete kill)
phytotoxicity rating SETVI ([5]; 0.400 kg/ha): 9 (9 - Complete kill)
phytotoxicity rating SETVI ([5]; 0.800 kg/ha): 9 (9 - Complete kill)
phytotoxicity rating LOLPE ([6]; 0.100 kg/ha): 0 (0 - No effect)
phytotoxicity rating LOLPE ([6]; 0.200 kg/ha): 0 (0 - No effect)
phytotoxicity rating LOLPE ([6]; 0.400 kg/ha): 3 (3 - Moderate effect)
phytotoxicity rating LOLPE ([6]; 0.800 kg/ha): 8 (8 - Approaching complete kill)
phytotoxicity rating TRZAW ([7]; 0.100 kg/ha): 0 (0 - No effect)
phytotoxicity rating TRZAW ([7]; 0.200 kg/ha): 0 (0 - No effect)
phytotoxicity rating TRZAW ([7]; 0.400 kg/ha): 0 (0 - No effect)
phytotoxicity rating TRZAW ([7]; 0.800 kg/ha): 1 (1 - Trace effect)
phytotoxicity rating HORVW ([8]; 0.100 kg/ha): 0 (0 - No effect)
phytotoxicity rating HORVW ([8]; 0.200 kg/ha): 0 (0 - No effect)
phytotoxicity rating HORVW ([8]; 0.400 kg/ha): 2 (2 - Slight effect)
phytotoxicity rating HORVW ([8]; 0.800 kg/ha): 3 (3 - Moderate effect)
phytotoxicity rating ZEAMX ([9]; 0.100 kg/ha): 0 (0 - No effect)
phytotoxicity rating ZEAMX ([9]; 0.200 kg/ha): 0 (0 - No effect)
phytotoxicity rating ZEAMX ([9]; 0.400 kg/ha): 0 (0 - No effect)
phytotoxicity rating ZEAMX ([9]; 0.800 kg/ha): 0 (0 - No effect)
phytotoxicity rating GLXMA ([10]; 0.100 kg/ha): 0 (0 - No effect)
phytotoxicity rating GLXMA ([10]; 0.200 kg/ha): 0 (0 - No effect)
phytotoxicity rating GLXMA ([10]; 0.400 kg/ha): 0 (0 - No effect)
phytotoxicity rating GLXMA ([10]; 0.800 kg/ha): 0 (0 - No effect)
phytotoxicity rating ORYSA ([11]; 0.100 kg/ha): 0 (0 - No effect)
phytotoxicity rating ORYSA ([11]; 0.200 kg/ha): 0 (0 - No effect)
phytotoxicity rating ORYSA ([11]; 0.400 kg/ha): 2 (2 - Slight effect)
phytotoxicity rating ORYSA ([11]; 0.800 kg/ha): 5 (5 - Definite injury)
phytotoxicity rating AMATA ([12]; 0.100 kg/ha): 3 (3 - Moderate effect)
phytotoxicity rating AMATA ([12]; 0.400 kg/ha): 3 (3 - Moderate effect)
phytotoxicity rating GALAP ([13]; 0.100 kg/ha): 3 (3 - Moderate effect)
phytotoxicity rating GALAP ([13]; 0.200 kg/ha): 3 (3 - Moderate effect)
phytotoxicity rating GALAP ([13]; 0.400 kg/ha): 4 (4 - Injury)
phytotoxicity rating ALOMY ([14]; 0.100 kg/ha): 2 (2 - Slight effect)
phytotoxicity rating ALOMY ([14]; 0.200 kg/ha): 5 (5 - Definite injury)
phytotoxicity rating ALOMY ([14]; 0.400 kg/ha): 7 (7 - Good herbicidal effect)
phytotoxicity rating APESV ([15]; 0.100 kg/ha): 0 (0 - No effect)
phytotoxicity rating APESV ([15]; 0.200 kg/ha): 6 (6 - Herbicidal effect)
phytotoxicity rating APESV ([15]; 0.400 kg/ha): 4 (4 - Injury)
phytotoxicity rating ECHCG ([16]; 0.100 kg/ha): 0 (0 - No effect)
phytotoxicity rating ECHCG ([16]; 0.200 kg/ha): 0 (0 - No effect)
phytotoxicity rating ECHCG ([16]; 0.400 kg/ha): 0 (0 - No effect)
phytotoxicity rating SETVI ([17]; 0.100 kg/ha): 0 (0 - No effect)
phytotoxicity rating SETVI ([17]; 0.200 kg/ha): 0 (0 - No effect)
phytotoxicity rating SETVI ([17]; 0.400 kg/ha): 0 (0 - No effect)
phytotoxicity rating LOLPE ([18]; 0.100 kg/ha): 4 (4 - Injury)
phytotoxicity rating LOLPE ([18]; 0.200 kg/ha): 6 (6 - Herbicidal effect)
phytotoxicity rating LOLPE ([18]; 0.400 kg/ha): 7 (7 - Good herbicidal effect)
phytotoxicity rating TRZAW ([19]; 0.100 kg/ha): 0 (0 - No effect)
phytotoxicity rating TRZAW ([19]; 0.200 kg/ha): 0 (0 - No effect)
phytotoxicity rating TRZAW ([19]; 0.400 kg/ha): 0 (0 - No effect)
phytotoxicity rating HORVW ([20]; 0.100 kg/ha): 0 (0 - No effect)
phytotoxicity rating HORVW ([20]; 0.200 kg/ha): 0 (0 - No effect)
phytotoxicity rating HORVW ([20]; 0.400 kg/ha): 2 (2 - Slight effect)
phytotoxicity rating ZEAMX ([21]; 0.100 kg/ha): 0 (0 - No effect)
phytotoxicity rating ZEAMX ([21]; 0.200 kg/ha): 0 (0 - No effect)
phytotoxicity rating ZEAMX ([21]; 0.400 kg/ha): 0 (0 - No effect)
phytotoxicity rating GLXMA ([22]; 0.100 kg/ha): 2 (2 - Slight effect)
phytotoxicity rating GLXMA ([22]; 0.200 kg/ha): 3 (3 - Moderate effect)
phytotoxicity rating GLXMA ([22]; 0.400 kg/ha): 4 (4 - Injury)
phytotoxicity rating ORYSA ([23]; 0.100 kg/ha): 0 (0 - No effect)
phytotoxicity rating ORYSA ([23]; 0.200 kg/ha): 0 (0 - No effect)
phytotoxicity rating ORYSA ([23]; 0.400 kg/ha): 2 (2 - Slight effect)
